Where two headings read alike, the source gives them in different places.
What was measured:
Format in all cases: cell-based
HUVEC cells = assay: HUVEC cytotoxicity assay (CellTiter Glo, 72 h); conditions: Homo sapiens, read-out: Cell Proliferation HUVEC IC50
Experimental: (§1) HeLa cells (ATCC® CCL2™) in DMEM (Dulbecco Modified Eagle's Medium) without phenol red, Thermo, 11880, USA+10% FBS+1× PenStrep+1× Gln or HUVEC cells (ATCC® CRL1730™) in EBM-2 (Endothelial Growth Basal Medium, Lonza, CC3156)+EGM-2 SingleQuotsTMSupplements and Growth Factors (Lonza, CC4176)+1× Penicyllin-Streptomycin (PenStrep, ThermoFisher)+1× Glutamine, are plated in a 384 well plate (Thermo, 4334-11, USA) to a density of 2000 cells per well and let recover for four hours at 37° C., 5% CO2 in a humidified atmosphere. After the recovery, compounds are transferred to assay plates as per compound preparation method. Assay plates are then incubated at 37° C., 5% CO2 in a humidified atmosphere for 72 hours. Cell viability is measured by the CellTiter Glo (Promega, G8080, USA) as per manufacturer instruction.

[1] = system: Bloodstream form of Trypanosoma brucei, strain Lister 427; assay: Trypanosoma brucei growth inhibition assay (CellTiter-Glo, 24 h); conditions: Trypanosoma brucei
Procedure, shortened: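 Bloodstream-form T. brucei Lister 427, 1500 parasites per well in supplemented IMDM with 10% FBS, were exposed to compound (DMSO ≤0.25% final) for 24 h at 37 °C. Viability was measured by CellTiter-Glo luminescence.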

HeLa cells = assay: HeLa cytotoxicity assay (CellTiter Glo, 72 h); conditions: Homo sapiens, read-out: Cell Proliferation Hela IC50
Experimental: as §1

[2] = T. Brucei Growth Inibition Assay, class symbols, read-out: T. Brucei GI EC50
[3] = Table 3, read-out: T. brucei GI EC50

Row | Structure (SMILES) | IC50 (HUVEC cells) | EC50 [1, 2] | EC50 [1, 3] | IC50 (HeLa cells)
1 | CCC(=O)CCCN1CCN(C(=O)Cc2c[nH]c3ccccc23)C(c2ncc(-c3ccc4ccccc4c3)[nH]2)C1 (stereo not drawn) | 9970 nM | 100 to 500 nM | 489 nM | ≥ 25000 nM
2 | CCC(=O)CCCN1CCN(C(=O)Cc2c[nH]c3ncccc23)C(c2ncc(-c3ccc4ccccc4c3)[nH]2)C1 (stereo not drawn) | ≥ 25000 nM | 510 to 1000 nM | 545 nM | ≥ 25000 nM
3 | COc1nc2ccccc2cc1-c1cnc(C2CN(CC3CCOC3)CCN2C(=O)Cn2c(C)nc3ccccc32)[nH]1 (stereo not drawn) [1-(2-(5-(2-methoxyquinolin-3-yl)-1H-imidazol-2-yl)-4-((tetrahydrofuran-3-yl)methyl)piperazin-1-yl)-2-(2-methyl-1H-benzo[d]imidazol-1-yl)ethan-1-one] | ≥ 25000 nM | 100 to 500 nM | 163 nM | 20600 nM
4 | CCC(O)CCCN1CCN(C(=O)Cc2c(C)[nH]c3ccc(OC)cc23)C(c2ncc(-c3ccc4ccccc4c3)[nH]2)C1 (stereo not drawn) [1-(4-(4-hydroxyhexyl)-2-(5-(naphthalen-2-yl)-1H-imidazol-2-yl)piperazin-1-yl)-2-(5-methoxy-2-methyl-1H-indol-3-yl)ethan-1-one] | 9270 nM | < 100 nM | 13 nM | 13100 nM
5 | COc1ccc2[nH]c(C)c(CC(=O)N3CCN(CC4CC4)CC3c3ncc(-c4ccc5ccccc5c4)[nH]3)c2c1 (stereo not drawn) [1-(4-(cyclopropylmethyl)-2-(5-(naphthalen-2-yl)-1H-imidazol-2-yl)piperazin-1-yl)-2-(5-methoxy-2-methyl-1H-indol-3-yl)ethan-1-one] | 8060 nM | < 100 nM | 17.6 nM | ≥ 25000 nM
6 | CCCCCCN1CCN(C(=O)Cc2c(C)[nH]c3ccc(OC)cc23)C(c2ncc(-c3ccc4ccccc4c3)[nH]2)C1 (stereo not drawn) [1-(4-hexyl-2-(5-(naphthalen-2-yl)-1H-imidazol-2-yl)piperazin-1-yl)-2-(5-methoxy-2-methyl-1H-indol-3-yl)ethan-1-one] | ≥ 25000 nM | < 100 nM | 78.7 nM | ≥ 25000 nM
7 | COc1nc2ccccc2cc1-c1cnc(C2CN(Cc3cnn(C)c3)CCN2C(=O)Cc2c(C)[nH]c3ccc(F)cc23)[nH]1 (stereo not drawn) [2-(5-fluoro-2-methyl-1H-indol-3-yl)-1-(2-(5-(2-methoxyquinolin-3-yl)-1H-imidazol-2-yl)-4-((1-methyl-1H-pyrazol-4-yl)methyl)piperazin-1-yl)ethan-1-one] | 6720 nM | 100 to 500 nM | 172 nM | 17400 nM
8 | COc1nc2ccccc2cc1-c1cnc(C2CN(CC3CCOC3)CCN2C(=O)Cc2c(C)[nH]c3ccc(F)cc23)[nH]1 (stereo not drawn) [2-(5-fluoro-2-methyl-1H-indol-3-yl)-1-(2-(5-(2-methoxyquinolin-3-yl)-1H-imidazol-2-yl)-4-((tetrahydrofuran-3-yl)methyl)piperazin-1-yl)ethan-1-one] | 9630 nM | < 100 nM | 35.1 nM | 18700 nM
9 | COc1nc2ccccc2cc1-c1cnc(C2CN(C3CCOCC3)CCN2C(=O)Cc2c(C)[nH]c3ccc(F)cc23)[nH]1 (stereo not drawn) [2-(5-fluoro-2-methyl-1H-indol-3-yl)-1-(2-(5-(2-methoxyquinolin-3-yl)-1H-imidazol-2-yl)-4-(tetrahydro-2H-pyran-4-yl)piperazin-1-yl)ethan-1-one] | 10600 nM | 100 to 500 nM | 117 nM | ≥ 25000 nM
10 | COc1nc2ccccc2cc1-c1cnc(C2CN(Cc3nccs3)CCN2C(=O)Cc2c(C)[nH]c3ccc(F)cc23)[nH]1 (stereo not drawn) [2-(5-fluoro-2-methyl-1H-indol-3-yl)-1-(2-(5-(2-methoxyquinolin-3-yl)-1H-imidazol-2-yl)-4-(thiazol-2-ylmethyl)piperazin-1-yl)ethan-1-one] | 8200 nM | < 100 nM | 60.6 nM | ≥ 25000 nM
11 | COc1nc2ccccc2cc1-c1cnc(C2CN(C)CCN2C(=O)Cc2c(C)[nH]c3ccc(F)cc23)[nH]1 (stereo not drawn) [2-(5-fluoro-2-methyl-1H-indol-3-yl)-1-(2-(5-(2-methoxyquinolin-3-yl)-1H-imidazol-2-yl)-4-methylpiperazin-1-yl)ethan-1-one] | 5680 nM | 100 to 500 nM | 122 nM | 18100 nM
12 | COc1ccc2[nH]c(C)c(CC(=O)N3CCN(CC4CCOC4)CC3c3ncc(-c4cc5ccccc5nc4OC)[nH]3)c2c1 (stereo not drawn) [2-(5-methoxy-2-methyl-1H-indol-3-yl)-1-(2-(5-(2-methoxyquinolin-3-yl)-1H-imidazol-2-yl)-4-((tetrahydrofuran-3-yl)methyl)piperazin-1-yl)ethan-1-one] | 23200 nM | < 100 nM | 22.9 nM | ≥ 25000 nM
13 | COc1ccc2[nH]c(C)c(CC(=O)N3CCN(C)CC3c3ncc(-c4cc5ccccc5nc4OC)[nH]3)c2c1 (stereo not drawn) [2-(5-methoxy-2-methyl-1H-indol-3-yl)-1-(2-(5-(2-methoxyquinolin-3-yl)-1H-imidazol-2-yl)-4-methylpiperazin-1-yl)ethan-1-one] | ≥ 25000 nM | 100 to 500 nM | 139 nM | ≥ 25000 nM
14 | COc1ccc2[nH]c(C)c(CC(=O)N3CCN(CC4CCOC4)CC3c3ncc(-c4ccc5ccccc5c4)[nH]3)c2c1 (stereo not drawn) [2-(5-methoxy-2-methyl-1H-indol-3-yl)-1-(2-(5-(naphthalen-2-yl)-1H-imidazol-2-yl)-4-((tetrahydrofuran-3-yl)methyl)piperazin-1-yl)ethan-1-one] | 18700 nM | < 100 nM | 4.72 nM | ≥ 25000 nM
15 | COc1ccc2[nH]c(C)c(CC(=O)N3CCN(C)CC3c3ncc(-c4ccc5ccccc5c4)[nH]3)c2c1 (stereo not drawn) [2-(5-methoxy-2-methyl-1H-indol-3-yl)-1-(4-methyl-2-(5-(naphthalen-2-yl)-1H-imidazol-2-yl)piperazin-1-yl)ethan-1-one] | 21800 nM | < 100 nM | 39.9 nM | ≥ 25000 nM
16 | CCC(=O)CCCN1CCN(C(=O)Cc2c(C)[nH]c3ccc(OC)cc23)C(c2ncc(-c3cc4ccccc4nc3OC)[nH]2)C1 (stereo not drawn) [6-(4-(2-(5-methoxy-2-methyl-1H-indol-3-yl)acetyl)-3-(5-(2-methoxyquinolin-3-yl)-1H-imidazol-2-yl)piperazin-1-yl)hexan-3-one] | 21400 nM | < 100 nM | 34.2 nM | ≥ 25000 nM
17 | CCC(=O)CCCN1CCN(C(=O)Cc2c(C)[nH]c3ccc(OC)cc23)C(c2nnc(-c3ccc4ccccc4c3)o2)C1 (stereo not drawn) [6-(4-(2-(5-methoxy-2-methyl-1H-indol-3-yl)acetyl)-3-(5-(naphthalen-2-yl)-1,3,4-oxadiazol-2-yl)piperazin-1-yl)hexan-3-one] | ≥ 25000 nM | 100 to 500 nM | 350 nM | ≥ 25000 nM
18 | CCC(=O)CCCN1CCN(C(=O)Cc2c(C)[nH]c3ccc(OC)cc23)C(c2ncc(-c3ccc4ccccc4c3)[nH]2)C1 (stereo not drawn) [6-(4-(2-(5-methoxy-2-methyl-1H-indol-3-yl)acetyl)-3-(5-(naphthalen-2-yl)-1H-imidazol-2-yl)piperazin-1-yl)hexan-3-one] | ≥ 25000 nM | < 100 nM | 9.92 nM | 12300 nM

— patent US10815222B2, “Compounds for use in the treatment of kinetoplastid infection” (C.N.C.C.S. S.c.a.r.l. COLLEZIONE NAZIONALE DEI COMPOSTI …, priority 2016, dated 2020)
